Patent US9504752B2, “Sterilizer, oral cavity sterilizer, sterilization method, sterilization apparatus, and sterilizer evaluation method” (AZ CO., LTD., priority 2011, dated 2016)

System: Streptococcus aureus
Assay: Sterilization effect of hydrogen peroxide photolysis (laser 400±20 nm) with catalase activity inhibitor, viable count on BHI agar
Format: cell-based
Conditions: only hydrogen peroxide, no laser, no scutellaria, H(+)L(−)O(−); FIG. 4
Experimental: An experiment for examining an effect of the catalase activity inhibitor of enhancing a sterilization effect was conducted. In the experiment, […] which is a catalase-positive bacterium was used as a target of the sterilization. A bacterium suspension having a concentration of 10^7 cells/mL was prepared by using the bacterium and saline, and the suspension was used for the experiment. A semiconductor laser (product name: […] Experiment samples were prepared by using scutellaria as the catalase activity inhibitor, diluting the scutellaria with ultrapure water, followed by sterilization by filtration through a 0.22 μm filter, and then adding the scutellaria solution to the mixture liquids of bacterium suspension and hydrogen peroxide to attain final scutellaria concentrations of 0, 1, and 3 mg/mL. [table] The laser irradiation was performed immediately after preparing the experiment samples, and 50 μL of the sample after the irradiation and 50 μL of 5000 U/mL catalase were mixed to stop the reaction of hydrogen peroxide. After that, a 10-fold dilution series was prepared and was seeded on a BHI agar culture medium, followed by culturing under an aerophilic condition of 37° C. for 24 hours, and then evaluation of the sterilization effect was conducted. […]

OO [hydrogen peroxide]
sterilization effect: no sterilization effect
